Assay results taken from the NIST ThermoML archive (doi:10.1016/j.fluid.2010.04.010).
± gives the expanded uncertainty stated by the source.

Assay: activity coefficient (dimensionless); of the first substance listed, at infinite dilution; xn = mol fraction of the nth substance listed
Details: Liquid, Dilutor technique, x1 = 0

Row | Structure (SMILES) | activity coefficient (303.15 K) | activity coefficient (313.15 K) | activity coefficient (323.15 K) | activity coefficient (333.15 K)
1 | c1ccccc1 [benzene] + CCCCCC[n+]1cccc(C)c1.O=S(=O)([N-]S(=O)(=O)C(F)(F)F)C(F)(F)F | 0.673 ± 0.004 | 0.683 ± 0.004 | 0.691 ± 0.004 | 0.701 ± 0.004
2 | c1ccccc1 [benzene] + CCCCCCn1cc[n+](C)c1.F[B-](F)(F)F | 1.385 ± 0.004 | 1.446 ± 0.004 | 1.562 ± 0.004 | 1.912 ± 0.004
3 | c1ccccc1 [benzene] + CCCCn1cc[n+](C)c1.F[B-](F)(F)F | – | 2.341 ± 0.004 | 2.246 ± 0.004 | 2.218 ± 0.004
4 | C1=CCCCC1 [cyclohexene] + CCCCCC[n+]1cccc(C)c1.O=S(=O)([N-]S(=O)(=O)C(F)(F)F)C(F)(F)F | 3.337 ± 0.004 | 3.205 ± 0.004 | 3.131 ± 0.004 | 3.018 ± 0.004
5 | C1=CCCCC1 [cyclohexene] + CCCCCCn1cc[n+](C)c1.F[B-](F)(F)F | 7.74 ± 0.004 | 7.632 ± 0.004 | 7.496 ± 0.004 | 7.052 ± 0.004
